Results published in PubChem BioAssay AID248 (DTP/NCI, 2004).
Values joined by “and” are separate entries in the source; they are usually repeats but may differ in a detail not shown here. Identical values can stand only once. Toxic doses and inconclusive results are not listed. Rule as the data show it: active = T/C of 150% or more; inactive = T/C below 125%.

System: L1210 leukemia ip in BDF1 mice, survival T/C
Assay: NCI In Vivo Anticancer Drug Screen. Data for tumor model L1210 Leukemia (intraperitoneal) in B6D2F1 (BDF1) mice
Settings: higher = longer survival
How it was run: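 Antitumor effect is assessed in tumor-bearing animals. Survival in the compound arm is compared with a vehicle-dosed control arm and expressed as their quotient.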

Measured: T/C

CN(C)/N=N/c1nc[nH]c1C(N)=O
inactive: endpoint: mean survival time, dose: 3.12 mg/kg/injection, schedule: Q#A X Z (ip), vehicle: carboxymethylcellulose (CMC) 100 % of control | endpoint: mean survival time, dose: 3.3 mg/kg/injection, schedule: Q01DX009 (ip), vehicle: carboxymethylcellulose (CMC) 104 % of control | endpoint: mean survival time, dose: 6.2 mg/kg/injection, schedule: Q01DX Z (ip), vehicle: saline 106 % of control | endpoint: mean survival time, dose: 6.25 mg/kg/injection, schedule: Q01DX006 (iv), vehicle: carboxymethylcellulose (CMC) 107 % of control | endpoint: mean survival time, dose: 6.25 mg/kg/injection, schedule: Q01DX Z (im), vehicle: carboxymethylcellulose (CMC) 101 % of control | endpoint: mean survival time, dose: 6.25 mg/kg/injection, schedule: Q01DX Z (ip), vehicle: carboxymethylcellulose (CMC) 106 % of control | endpoint: mean survival time, dose: 6.5 mg/kg/injection, schedule: Q01DX009 (ip), vehicle: carboxymethylcellulose (CMC) 100 % of control | endpoint: mean survival time, dose: 7.5 mg/kg/injection, schedule: Q03HX032 (ip), vehicle: carboxymethylcellulose (CMC) 108 % of control | endpoint: mean survival time, dose: 9.0 mg/kg/injection, schedule: Q01DX001 (ip), vehicle: carboxymethylcellulose (CMC) 101 % of control | endpoint: mean survival time, dose: 11.4 mg/kg/injection, schedule: Q03HX032 (ip), vehicle: carboxymethylcellulose (CMC) 106 % of control | endpoint: mean survival time, dose: 12.5 mg/kg/injection, schedule: Q01DX Z (im), vehicle: carboxymethylcellulose (CMC) 106 % of control | endpoint: mean survival time, dose: 12.5 mg/kg/injection, schedule: Q#A X034 (ip), vehicle: carboxymethylcellulose (CMC) 105 % of control | endpoint: mean survival time, dose: 13.0 mg/kg/injection, schedule: Q01DX009 (ip), vehicle: carboxymethylcellulose (CMC) 100 % of control and 102 % of control | endpoint: mean survival time, dose: 15.0 mg/kg/injection, schedule: Q04DX002 (ip), vehicle: carboxymethylcellulose (CMC) 93 % of control and 110 % of control | endpoint: mean survival time, dose: 18.75 mg/kg/injection, schedule: Q01DX001 (ip), vehicle: carboxymethylcellulose (CMC) 107 % of control | endpoint: mean survival time, dose: 23.7 mg/kg/injection, schedule: Q01DX009 (ip), vehicle: carboxymethylcellulose (CMC) 108 % of control | endpoint: mean survival time, dose: 25.0 mg/kg/injection, schedule: Q01DX005 (ip), vehicle: water 110 % of control | endpoint: mean survival time, dose: 25.0 mg/kg/injection, schedule: Q01DX009 (ip), vehicle: Klucel (hydroxypropylcellulose) (HPC) 104 % of control | endpoint: mean survival time, dose: 25.0 mg/kg/injection, schedule: Q04DX003 (ip), vehicle: other 95 % of control and 103 % of control | endpoint: mean survival time, dose: 26.0 mg/kg/injection, schedule: Q03HX032 (ip), vehicle: carboxymethylcellulose (CMC) 111 % of control | endpoint: mean survival time, dose: 29.0 mg/kg/injection, schedule: Q04DX002 (ip), vehicle: carboxymethylcellulose (CMC) 100 % of control | endpoint: mean survival time, dose: 30.0 mg/kg/injection, schedule: Q## X008 (ip), vehicle: other 101 % of control | endpoint: mean survival time, dose: 31.0 mg/kg/injection, schedule: Q01DX001 (ip), vehicle: carboxymethylcellulose (CMC) 103 % of control | endpoint: mean survival time, dose: 32.0 mg/kg/injection, schedule: Q01DX005 (ip), vehicle: water 101 % of control | endpoint: mean survival time, dose: 39.0 mg/kg/injection, schedule: Q01DX009 (ip), vehicle: steriod suspending solution 108 % of control | endpoint: mean survival time, dose: 39.0 mg/kg/injection, schedule: Q01DX Z (ip), vehicle: steriod suspending solution 108 % of control | endpoint: mean survival time, dose: 50.0 mg/kg/injection, schedule: Q01DX001 (ip), vehicle: water 103 % of control | endpoint: mean survival time, dose: 50.0 mg/kg/injection, schedule: Q01DX Z (oral), vehicle: carboxymethylcellulose (CMC) 109 % of control | endpoint: mean survival time, dose: 50.0 mg/kg/injection, schedule: Q02DX009 (ip), vehicle: carboxymethylcellulose (CMC) 103 % of control | endpoint: mean survival time, dose: 50.0 mg/kg/injection, schedule: Q04DX003 (ip), vehicle: Klucel (hydroxypropylcellulose) (HPC) 110 % of control | endpoint: mean survival time, dose: 50.0 mg/kg/injection, schedule: Q04DX003 (ip), vehicle: other 104 % of control and 106 % of control | endpoint: mean survival time, dose: 50.0 mg/kg/injection, schedule: Q04DX003 (ip), vehicle: water 108 % of control | endpoint: mean survival time, dose: 50.0 mg/kg/injection, schedule: Q07DX003 (oral), vehicle: other 100 % of control | endpoint: mean survival time, dose: 50.0 mg/kg/injection, schedule: Q## X003 (ip), vehicle: carboxymethylcellulose (CMC) 105 % of control | endpoint: mean survival time, dose: 58.0 mg/kg/injection, schedule: Q04DX002 (ip), vehicle: carboxymethylcellulose (CMC) 103 % of control | endpoint: mean survival time, dose: 60.0 mg/kg/injection, schedule: Q## X008 (ip), vehicle: other 107 % of control | endpoint: mean survival time, dose: 62.0 mg/kg/injection, schedule: Q01DX001 (ip), vehicle: carboxymethylcellulose (CMC) 106 % of control | endpoint: mean survival time, dose: 65.0 mg/kg/injection, schedule: Q02DX009 (ip), vehicle: steriod suspending solution 106 % of control and 110 % of control | endpoint: mean survival time, dose: 66.0 mg/kg/injection, schedule: Q04DX003 (ip), vehicle: carboxymethylcellulose (CMC) 107 % of control | endpoint: mean survival time, dose: 100.0 mg/kg/injection, schedule: Q01DX001 (ip), vehicle: steriod suspending solution 110 % of control | endpoint: mean survival time, dose: 100.0 mg/kg/injection, schedule: Q01DX001 (ip), vehicle: water 105 % of control | endpoint: mean survival time, dose: 100.0 mg/kg/injection, schedule: Q04DX002 (ip), vehicle: Klucel (hydroxypropylcellulose) (HPC) 105 % of control | endpoint: mean survival time, dose: 100.0 mg/kg/injection, schedule: Q04DX003 (ip), vehicle: water 110 % of control | endpoint: mean survival time, dose: 100.0 mg/kg/injection, schedule: Q07DX003 (oral), vehicle: other 104 % of control | endpoint: mean survival time, dose: 100.0 mg/kg/injection, schedule: Q## X003 (ip), vehicle: carboxymethylcellulose (CMC) 109 % of control | endpoint: mean survival time, dose: 100.0 mg/kg/injection, schedule: Q## X005 (ip), vehicle: carboxymethylcellulose (CMC) 107 % of control | endpoint: mean survival time, dose: 100.0 mg/kg/injection, schedule: Q#A X Z (ip), vehicle: carboxymethylcellulose (CMC) 102 % of control | endpoint: mean survival time, dose: 108.0 mg/kg/injection, schedule: Q02DX009 (ip), vehicle: steriod suspending solution 105 % of control and 107 % of control | endpoint: mean survival time, dose: 125.0 mg/kg/injection, schedule: Q01DX001 (ip), vehicle: carboxymethylcellulose (CMC) 109 % of control | endpoint: mean survival time, dose: 168.0 mg/kg/injection, schedule: Q01DX001 (ip), vehicle: carboxymethylcellulose (CMC) 107 % of control | endpoint: mean survival time, dose: 180.0 mg/kg/injection, schedule: Q02DX009 (ip), vehicle: steriod suspending solution 101 % of control and 104 % of control | endpoint: mean survival time, dose: 200.0 mg/kg/injection, schedule: Q01DX001 (ip), vehicle: water 108 % of control | endpoint: mean survival time, dose: 200.0 mg/kg/injection, schedule: Q01DX006 (iv), vehicle: carboxymethylcellulose (CMC) 102 % of control | endpoint: mean survival time, dose: 264.0 mg/kg/injection, schedule: Q01DX001 (ip), vehicle: other 110 % of control | endpoint: mean survival time, dose: 300.0 mg/kg/injection, schedule: Q01DX009 (ip), vehicle: steriod suspending solution 108 % of control | endpoint: mean survival time, dose: 300.0 mg/kg/injection, schedule: Q01DX Z (ip), vehicle: steriod suspending solution 108 % of control | endpoint: mean survival time, dose: 300.0 mg/kg/injection, schedule: Q03DX Z (ip), vehicle: carboxymethylcellulose (CMC) 103 % of control | endpoint: mean survival time, dose: 336.0 mg/kg/injection, schedule: Q01DX001 (ip), vehicle: carboxymethylcellulose (CMC) 109 % of control | endpoint: mean survival time, dose: 400.0 mg/kg/injection, schedule: Q01DX009 (ip), vehicle: other 106 % of control and 108 % of control | endpoint: mean survival time, dose: 400.0 mg/kg/injection, schedule: Q01DX009 (ip), vehicle: water 102 % of control | endpoint: mean survival time, dose: 400.0 mg/kg/injection, schedule: Q01DX Z (sc), vehicle: carboxymethylcellulose (CMC) 108 % of control | endpoint: mean survival time, dose: 400.0 mg/kg/injection, schedule: Q## X009 (ip), vehicle: carboxymethylcellulose (CMC) 110 % of control | endpoint: mean survival time, dose: 800.0 mg/kg/injection, schedule: Q01DX Z (oral), vehicle: carboxymethylcellulose (CMC) 96 % of control | endpoint: median survival time, dose: 20.0 mg/kg/injection, schedule: Q01DX009 (ip), vehicle: Klucel (hydroxypropylcellulose) (HPC) 106 % of control | endpoint: median survival time, dose: 20.0 mg/kg/injection, schedule: Q01DX015 (ip), vehicle: Klucel (hydroxypropylcellulose) (HPC) 110 % of control | endpoint: median survival time, dose: 65.0 mg/kg/injection, schedule: Q01DX001 (ip), vehicle: steriod suspending solution 100 % of control | endpoint: median survival time, dose: 65.0 mg/kg/injection, schedule: Q01DX009 (ip), vehicle: Klucel (hydroxypropylcellulose) (HPC) 110 % of control | endpoint: median survival time, dose: 65.0 mg/kg/injection, schedule: Q04DX003 (ip), vehicle: steriod suspending solution 110 % of control | endpoint: median survival time, dose: 108.0 mg/kg/injection, schedule: Q01DX001 (ip), vehicle: steriod suspending solution 110 % of control | endpoint: median survival time, dose: 108.0 mg/kg/injection, schedule: Q01DX014 (ip), vehicle: Klucel (hydroxypropylcellulose) (HPC) 94 % of control | endpoint: median survival time, dose: 108.0 mg/kg/injection, schedule: Q04DX003 (ip), vehicle: steriod suspending solution 110 % of control | endpoint: median survival time, dose: 180.0 mg/kg/injection, schedule: Q01DX001 (ip), vehicle: steriod suspending solution 100 % of control | endpoint: median survival time, dose: 180.0 mg/kg/injection, schedule: Q01DX014 (ip), vehicle: Klucel (hydroxypropylcellulose) (HPC) 108 % of control | endpoint: median survival time, dose: 300.0 mg/kg/injection, schedule: Q01DX001 (ip), vehicle: steriod suspending solution 110 % of control | endpoint: median survival time, dose: 300.0 mg/kg/injection, schedule: Q01DX013 (ip), vehicle: Klucel (hydroxypropylcellulose) (HPC) 105 % of control and 107 % of control | endpoint: median survival time, dose: 300.0 mg/kg/injection, schedule: Q01DX014 (ip), vehicle: Klucel (hydroxypropylcellulose) (HPC) 101 % of control | endpoint: median survival time, dose: 400.0 mg/kg/injection, schedule: Q04DX003 (ip), vehicle: Klucel (hydroxypropylcellulose) (HPC) 110 % of control | endpoint: median survival time, dose: 500.0 mg/kg/injection, schedule: Q01DX001 (ip), vehicle: steriod suspending solution 110 % of control | endpoint: median survival time, dose: 500.0 mg/kg/injection, schedule: Q01DX013 (ip), vehicle: Klucel (hydroxypropylcellulose) (HPC) 105 % of control and 107 % of control | endpoint: median survival time, dose: 500.0 mg/kg/injection, schedule: Q01DX014 (ip), vehicle: Klucel (hydroxypropylcellulose) (HPC) 102 % of control | endpoint: median survival time, dose: 833.0 mg/kg/injection, schedule: Q01DX009 (ip), vehicle: Klucel (hydroxypropylcellulose) (HPC) 110 % of control | endpoint: median survival time, dose: 1600.0 mg/kg/injection, schedule: Q04DX003 (ip), vehicle: Klucel (hydroxypropylcellulose) (HPC) 95 % of control
